In patent US9316638B2, “Reagents for reducing leukocyte interference in immunoassays” (Abbott Point of Care Inc., priority 2010, dated 2016):

How the values were obtained:
leukocytes = test: BNP immunoassay signal slope (AmpActSlope) as indicator of leukocyte interference in enriched buffy blood samples (EBS); format: cell-based, human
Procedure: The experiments described below were performed on a BNP assay, specifically an i-STAT® BNP cartridge (Abbott Point of Care, Princeton, N.J., USA) or a partially modified version thereof.
As an experimental aid to understanding the affect of leukocytes on whole-blood immunoassays, it is desirable to create an enriched buffy (blood) sample (EBS). […] In the experiments described herein, the EBS constituted approximately a ten-fold increase in the buffy concentration, i.e. roughly 90% of the plasma and red cells were removed. The hematocrit value (Hct) of the sample was therefore maintained in the normal range, roughly 50-60%.
As a baseline indicator of leukocyte interference, a cut-off value of a signal rate of change above 0.05 nA per second, was used (see right side y-axis, AmpActSlope). […] In the first group the enzyme is anticipated to remove substantially all the oxygen and the co-reactant glucose is added in substantial excess. The second group relies on glucose already in the sample to react with the enzyme. The third group is a control with added glucose and no enzyme.
With respect to the first group (EBS+OX+Glu), the initial oxygen concentration of about 200 mm Hg falls to about 10 mm Hg after 50 minutes, and the glucose concentration drops from 700 to about 100 mg/dL over the same period. During this period immunoassays were run to determine the AmpActSlope value.
To further characterize these effects, a study was run on a larger sample donor pool (15 donors multiple runs), as shown in FIG. 27. FIG. 27 is a scatter plot where the desirable AmpActSlope value is less than 0.05 and greater than −0.03 nA per second. In addition, in this particular experiment a maximum desirable sensor threshold current (ParamActDoc) was also set at 8.0 nA. The desirable result was therefore to minimize samples falling into the five segments around the target zone.

[1] = glucose and oxygen concentrations in treated EBS samples (i-STAT CG8+ cartridges); format: biochemical, human; conditions: OX 4.0 IU per mL, Glu 700 mg/dL
Procedure: In the first group the enzyme is anticipated to remove substantially all the oxygen and the co-reactant glucose is added in substantial excess. The second group relies on glucose already in the sample to react with the enzyme. The third group is a control with added glucose and no enzyme.
Note that i-STAT® CG8+ cartridges (Abbott Point of Care, New Jersey, USA) were used to determine the glucose and oxygen concentrations.
The “Sample 2” set of data was obtained where the treatment occurs in a closed syringe to prevent any oxygen being introduced from ambient air. […] The “Sample 3” data reflects opening the syringe about 20 minutes after the initial runs to allow ambient air access. This sample was run at the 40 minute mark. […] The “Sample 1” data in FIG. 28A is a control EBS+Glu only.

[2] = Source text: While it is more common for a blood sample used in an immunoassay performed in a laboratory to be drawn from a vein, where point-of-care (or bedside, e.g. Emergency Room, Operating Room) testing is done, it is not uncommon for the sample to be drawn from an artery. […] To assess the impact of an arterial sample on the present assay, simulated arterial samples were generated and tested. […] Simulated samples were created with a tonometer using venous blood collected in an EDTA tube. The tonometer equilibrates the blood with a predetermined gas composition.
Note these samples were not enriched as described above.

Substance: glucose oxidase
- assayed samples with AmpActSlope below 0.05 nA per second (leukocytes; EBS, OX 4.0 IU per mL, Glu 700 mg/dL, FIG. 26): 9 out of 13
- reduction in number of assays with slope above the desirable threshold (leukocytes; addition of glucose oxidase, in general): about 90%
- difference in assays beyond threshold, treated vs untreated (leukocytes; treated 1.0% vs untreated 13.4%, FIG. 27): 92.1%
- assays beyond threshold (AmpActSlope <0.05 and >-0.03 nA per second, ParamActDoc max 8.0 nA) (leukocytes; treated EBS+OX, N=287, 15 donors, FIG. 27): 1.0%
- glucose oxidase concentration in the sample found preferable (leukocytes; venous samples): > 3 IU per mL
- glucose concentration after treatment ([1]; OX+Glu from 700 after 50 minutes): below 20 mg/dL
- oxygen concentration (PO2) after treatment ([1]; initial about 200 mm Hg, OX+Glu value after 50 minutes): about 50 mm Hg
- inhibition of phagocytosis in arterial blood ([2]; glucose oxidase 6.0 IU and 12.0 IU per mL): sufficient to inhibit phagocytosis
- partial pressure of oxygen in the sample ([2]; simulated arterial blood, initial PO2 about 150 mm Hg, glucose oxidase 6.0 IU and 12.0 IU per mL): below 50 mm Hg
- change in glucose and PO2 ([2]; tonometered whole blood, glucose oxidase 6 and 12 IU per mL, no added glucose): decreased glucose and PO2
